Test results from patent US20110178143A1, “THERAPEUTIC COMPOUNDS” (ALLERGAN, INC., priority 2007, published 2011).
Read-outs that look alike come from different tables or passages of the source.

What was measured:
[1] = target: T1, alpha2A receptor (Homo sapiens, UniProt P08913); test: cell-based; details: for Emax: read-out: Alpha 2A intrinsic activity (IA), in parentheses
T1 sequence (P08913 1-465): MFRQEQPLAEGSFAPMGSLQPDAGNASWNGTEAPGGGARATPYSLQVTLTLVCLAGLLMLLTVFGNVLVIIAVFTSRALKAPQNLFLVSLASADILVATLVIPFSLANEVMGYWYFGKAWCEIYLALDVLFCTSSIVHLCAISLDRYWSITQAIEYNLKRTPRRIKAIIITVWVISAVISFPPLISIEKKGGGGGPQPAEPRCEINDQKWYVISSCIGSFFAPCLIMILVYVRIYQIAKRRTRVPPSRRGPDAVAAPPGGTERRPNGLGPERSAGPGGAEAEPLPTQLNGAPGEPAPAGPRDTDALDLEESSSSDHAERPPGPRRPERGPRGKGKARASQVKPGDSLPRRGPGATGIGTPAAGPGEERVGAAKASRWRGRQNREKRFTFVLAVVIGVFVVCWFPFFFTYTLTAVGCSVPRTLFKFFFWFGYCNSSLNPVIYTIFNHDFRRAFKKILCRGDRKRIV
Description: NIH-3T3 cells are plated at a density of 2×10^6 cells in 15 cm dishes and maintained in Dulbecco's modified Eagle's medium supplemented with 10% calf serum. One day later, cells are cotransfected by calcium phosphate precipitation with mammalian expression plasmids encoding p-SV-β-galactosidase (5-10 μg), receptor (1-2 μg) and G protein (1-2 μg). 40 μg salmon sperm DNA may also be included in the transfection mixture. Fresh media is added on the following day and 1-2 days later, cells are harvested and frozen in 50 assay aliquots. Cells are thawed and 100 μl added to 100 μl aliquots of various concentrations of drugs in triplicate in 96-well dishes. Incubations continue 72-96 hr at 37° C. After washing with phosphate-buffered saline, β-galactosidase enzyme activity is determined by adding 200 μl of the chromogenic substrate (consisting of 3.5 mM o-nitrophenyl-β-D-galactopyranoside and 0.5% nonidet P-40 in phosphate buffered saline), incubating overnight at 30° C. and measuring optical density at 420 nm. The absorbance is a measure of enzyme activity, which depends on cell number and reflects a receptor-mediated cell proliferation. The efficacy or intrinsic activity is calculated as a ratio of the maximal effect of the drug to the maximal effect of a standard full agonist for each receptor subtype. […] The EC50 is the concentration at which the drug effect is half of its maximal effect.

[2] = target: T2, alpha2C receptor (Homo sapiens, UniProt P18825); test: Receptor Selection and Amplification Technology (RSAT) assay, alpha 2C; type: cell-based; details: for Emax: RSAT, maximal effect relative to standard full agonist brimonidine (UK14304), read-out: Alpha 2C intrinsic activity (IA), in parentheses
T2 construct: expressed in transfected cells; host or cells: NIH-3T3 cells
T2 sequence (P18825 1-462): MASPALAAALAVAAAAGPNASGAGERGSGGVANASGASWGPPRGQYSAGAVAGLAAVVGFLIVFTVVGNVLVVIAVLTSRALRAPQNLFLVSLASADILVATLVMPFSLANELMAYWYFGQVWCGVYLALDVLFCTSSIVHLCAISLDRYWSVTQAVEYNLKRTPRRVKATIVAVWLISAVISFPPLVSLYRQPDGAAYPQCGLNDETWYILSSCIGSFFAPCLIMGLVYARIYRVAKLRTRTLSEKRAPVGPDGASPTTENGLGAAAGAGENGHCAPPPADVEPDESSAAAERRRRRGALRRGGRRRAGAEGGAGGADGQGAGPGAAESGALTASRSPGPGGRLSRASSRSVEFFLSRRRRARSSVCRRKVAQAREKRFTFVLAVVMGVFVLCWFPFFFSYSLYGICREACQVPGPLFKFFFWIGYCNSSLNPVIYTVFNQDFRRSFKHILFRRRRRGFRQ
Description: (§1) Receptor Selection and Amplification Technology (RSAT) Assay
(§2) The RSAT assay measures a receptor-mediated loss of contact inhibition that results in selective proliferation of receptor-containing cells in a mixed population of confluent cells. The increase in cell number is assessed with an appropriate transfected marker gene such as β-galactosidase, the activity of which can be easily measured in a 96-well format. Receptors that activate the G protein, Gq, elicit this response. Alpha2 receptors, which normally couple to Gi, activate the RSAT response when coexpressed with a hybrid Gq protein that has a Gi receptor recognition domain, called Gq/i5.
(§3) NIH-3T3 cells are plated at a density of 2×10^6 cells in 15 cm dishes and maintained in Dulbecco's modified Eagle's medium supplemented with 10% calf serum. One day later, cells are cotransfected by calcium phosphate precipitation with mammalian expression plasmids encoding p-SV-β-galactosidase (5-10 μg), receptor (1-2 μg) and G protein (1-2 μg). 40 μg salmon sperm DNA may also be included in the transfection mixture. Fresh media is added on the following day and 1-2 days later, cells are harvested and frozen in 50 assay aliquots. Cells are thawed and 100 μl added to 100 μl aliquots of various concentrations of drugs in triplicate in 96-well dishes. Incubations continue 72-96 hr at 37° C. After washing with phosphate-buffered saline, β-galactosidase enzyme activity is determined by adding 200 μl of the chromogenic substrate (consisting of 3.5 mM o-nitrophenyl-β-D-galactopyranoside and 0.5% nonidet P-40 in phosphate buffered saline), incubating overnight at 30° C. and measuring optical density at 420 nm. The absorbance is a measure of enzyme activity, which depends on cell number and reflects a receptor-mediated cell proliferation. The efficacy or intrinsic activity is calculated as a ratio of the maximal effect of the drug to the maximal effect of a standard full agonist for each receptor subtype. Brimonidine, also called UK14304, the chemical structure of which is shown below, is used as the standard agonist for the alpha2A, alpha2B and alpha2c receptors. The EC50 is the concentration at which the drug effect is half of its maximal effect.
(§4) EC50 values are nanomolar. ND stands for “not determinable” at concentrations less than 10 micromolar. IA stands for “intrinsic activity.”

[3] = target: T3, alpha2B receptor (Homo sapiens, UniProt P18089); test: Receptor Selection and Amplification Technology (RSAT) assay, alpha 2B; type: cell-based; details: for Emax: read-out: Alpha 2B intrinsic activity (IA), in parentheses
T3 construct: expressed in transfected cells; host or cells: NIH-3T3 cells
T3 sequence (P18089 1-450): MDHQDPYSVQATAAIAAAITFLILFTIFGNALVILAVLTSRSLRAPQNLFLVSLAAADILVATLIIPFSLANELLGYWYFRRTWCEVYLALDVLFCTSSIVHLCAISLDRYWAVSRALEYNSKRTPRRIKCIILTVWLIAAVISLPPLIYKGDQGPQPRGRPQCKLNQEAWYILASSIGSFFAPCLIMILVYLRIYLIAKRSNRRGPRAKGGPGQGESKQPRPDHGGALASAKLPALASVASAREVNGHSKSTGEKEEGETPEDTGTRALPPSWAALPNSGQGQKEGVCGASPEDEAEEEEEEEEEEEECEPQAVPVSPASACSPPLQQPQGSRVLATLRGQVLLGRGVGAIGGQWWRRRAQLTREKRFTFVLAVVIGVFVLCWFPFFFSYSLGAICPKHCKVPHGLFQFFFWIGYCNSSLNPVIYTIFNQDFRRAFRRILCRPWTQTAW
Description: as §1, §2, §3, §4

[4] = RSAT in transfected NIH-3T3 cells, nd = not determinable at concentrations less than 10 micromolar, read-out: Alpha 2B EC50
[5] = RSAT in transfected NIH-3T3 cells, nd = not determinable at concentrations less than 10 micromolar, read-out: Alpha 2C EC50

Row | Compound | Emax [1] [%] | Emax [2] [%] | EC50 [3, 4] [nM] | Emax [3] [%] | EC50 [3] [nM] | EC50 [1] [nM] | EC50 [2] [nM] | EC50 [2, 5] [nM]
1 | Cc1ccc2c(c1)C(NC1=NCCN1)CC2 (stereo not shown) | 7 | 7 | 473 | 34 |  |  |  | 
2 | Cc1cccc2c1CC[C@H]2NC1=NCCN1 | 11 | 11 |  | 106 | 33.4 |  |  | 
3 | c1ccc2c(c1)CC(NC1=NCCN1)C2 | 5 | 5 | 61 | 36 |  |  |  | 
4 | CC1CC(NC2=NCCS2)c2ccccc21 (stereo not shown) | 25 | 41 |  | 99 | 10 | 180 | 86 | 
5 | c1ccc2c(c1)CCC2NC1=NCCN1 (stereo not shown) | 3 | 46 |  | 93 | 17 |  |  | 207
6 | Cc1cccc2c1CC[C@@H]2NC1=NCCN1 | 16 | 62 |  | 125 | 4.5 |  | 82 | 
7 | Cc1cccc2c1CCC2NC1=NCCN1 (stereo not shown) | 20 | 38 |  | 98 | 5.7 |  |  | 429
8 | Cc1cccc2c1CC[C@@H]2NC1=NCCS1 | 57 | 96 | 3.4 | 138 |  | 143 |  | 23
9 | c1ccc2c(c1)CC[C@@H]2NC1=NCCN1 | 4 | 11 |  | 82 | 43 |  |  | 
10 | Brc1cccc2c1CCC2NC1=NCCN1 (stereo not shown) | 7 | 12 |  | 71 | 12.2 |  |  | 
11 | c1ccc2c(c1)CCC2NC1=NCCS1 (stereo not shown) | 14 | 102 |  | 107 | 7.5 |  | 54 | 
12 | CC1CC(NC2=NCCO2)c2ccccc21 (stereo not shown) | 25 | 50 | 2.2 | 112 |  | 7 |  | 19.8
